One test addresses PCSK9 (Homo sapiens (Human), UniProt Q8NBP7). Briefly: PCSK9 Alexa FRET Standard assay (displacement of AlexaFluor647 tagged cyclic peptide Reagent A). The class given is binding. The note with it: PCSK9 Alexa FRET Standard assay, 0.5 nM PCSK9, 20 nM AF cyclic peptide Reagent A; read-out: IC50. An outline of the steps:
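TR-FRET displacement: 0.5 nM biotinylated PCSK9 with 1.25 nM Strep-Eu and 20 nM AlexaFluor-tagged cyclic peptide (final) in 50 mM HEPES pH 7.4, 0.15 M NaCl, 5 mM CaCl2, 0.01% BSA, 0.01% P20, ≥2 h at room temperature. IC50 from sigmoidal fit, converted to Ki via peptide KD; falling Eu counts flagged false positives.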

In test [1] the target is human PCSK9 / human LDLR EGFa domain interaction (Homo sapiens (Human), UniProt Q8NBP7). Description: TR-FRET assay of inhibition of the PCSK9-LDLR protein-protein interaction. The class given is binding. The note with it: TR-FRET, 20 nM human PCSK9, 20 nM human LDLR EGFa domain, 2 hours room temperature; read-out: IC50. The method, boiled down: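 Compounds in dose-response are mixed with 20 nM human PCSK9 (avitag-biotinylated) and 20 nM his-tagged LDLR EGFa domain, plus 5 nM each streptavidin-Ulight and Eu-anti-6×His. After 2 h at room temperature in HEPES/NaCl/CaCl2 buffer with BSA and P20, TR-FRET is read and IC50 fitted (4-parameter).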
Chain of human PCSK9 / human LDLR EGFa domain interaction (Q8NBP7 153-692): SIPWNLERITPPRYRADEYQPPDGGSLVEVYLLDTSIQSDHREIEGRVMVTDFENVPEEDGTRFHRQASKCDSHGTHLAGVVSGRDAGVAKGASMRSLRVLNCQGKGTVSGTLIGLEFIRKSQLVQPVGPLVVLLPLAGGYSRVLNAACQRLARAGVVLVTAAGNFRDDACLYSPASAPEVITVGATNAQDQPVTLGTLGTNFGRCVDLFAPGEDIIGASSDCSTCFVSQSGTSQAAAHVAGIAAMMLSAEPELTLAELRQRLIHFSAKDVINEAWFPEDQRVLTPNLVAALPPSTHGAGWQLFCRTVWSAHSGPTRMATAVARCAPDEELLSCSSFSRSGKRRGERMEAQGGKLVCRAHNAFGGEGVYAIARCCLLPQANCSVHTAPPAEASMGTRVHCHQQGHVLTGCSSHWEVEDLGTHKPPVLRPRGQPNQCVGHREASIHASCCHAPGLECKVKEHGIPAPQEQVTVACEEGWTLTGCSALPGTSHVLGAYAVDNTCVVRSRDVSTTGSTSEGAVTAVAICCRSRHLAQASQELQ
Chain of human PCSK9 / human LDLR EGFa domain interaction (Q8NBP7 31-152 partner): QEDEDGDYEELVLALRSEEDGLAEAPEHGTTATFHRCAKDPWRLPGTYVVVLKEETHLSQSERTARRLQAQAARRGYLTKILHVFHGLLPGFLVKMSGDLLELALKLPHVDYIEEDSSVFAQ
For orientation: Time-resolved FRET reads energy transfer from a long-lived donor to a nearby acceptor.

Starred links: 1 amine or outer side, 2 acyl side, 3 side chain; linkers in the order of their positions; H or OH if unused. Positions of bridges follow the written chain, without caps; N, C: chain ends. Non-standard residues stand in square brackets, D forms with d. Residues, ends and D or L forms follow the SMILES beside them. NMeTrp(1-Me) = CN[C@@H](Cc1cn(C)c2ccccc12)C(=O)O; Trp(5-F) = N[C@@H](Cc1c[nH]c2ccc(F)cc12)C(=O)O; Trp(1-Me) = Cn1cc(C[C@H](N)C(=O)O)c2ccccc21; mXylylene(5-F) = Fc1cc(C[*:1])cc(C[*:2])c1; Leu(3R-OH) = CC(C)[C@@H](O)[C@H](N)C(=O)O; X13 = O=C(CCCCc1cccc(CCCCN[*:1])c1)[*:2]; X4 = O=C(CCSCc1cccc(CSCCN[*:1])c1)[*:2]; 2Nal = N[C@@H](Cc1ccc2ccccc2c1)C(=O)O; X23 = CC[C@@]1(C(=O)[*:2])CCCN1[*:1]; mXylylene = c1cc(C[*:1])cc(C[*:2])c1; NMeY = CN[C@@H](Cc1ccc(O)cc1)C(=O)O; Val(3-OH) = CC(C)(O)[C@H](N)C(=O)O; NMeT = CN[C@H](C(=O)O)[C@@H](C)O; β3hT = C[C@@H](O)[C@H](N)CC(=O)O; aThr = C[C@H](O)[C@H](N)C(=O)O; NMeL = CN[C@@H](CC(C)C)C(=O)O; dNMeL = CN[C@H](CC(C)C)C(=O)O; αMeP = C[C@@]1(C(=O)O)CCCN1; Nva = CCC[C@H](N)C(=O)O; Aib = CC(C)(N)C(=O)O; Mpa = O=C(O)CCS

Broadly, the IC50 is the concentration that inhibits the measured activity by half.

Chain of PCSK9 (Q8NBP7 153-692): as the sequence (Q8NBP7 153-692) above

As for `C[C@H]1NC(=O)[C@H](CCCCN)NC(=O)CCSCc2cccc(c2)CSC[C@@H](C(N)=O)NC(=O)[C@]2(C)CCCN2C(=O)[C@H](Cc2ccc(O)cc2)NC(=O)C(C)(C)NC(=O)[C@@H]2CCCN2C(=O)[C@H](Cc2c[nH]c3ccc(F)cc23)NC(=O)[C@H](Cc2c[nH]c3ccc(F)cc23)NC1=O` [Compound 005] ([Mpa]K[dA][Trp(5-F)][Trp(5-F)]P[Aib]Y[αMeP]C-NH2; linker 1-10 via mXylylene), the IC50 at PCSK9 was 100 to 1000 nM; in test [1] it was 0.1 to 100 nM.
On the same counts, the results for `COc1ccc(C[C@@H]2NC(=O)[C@H]([C@@H](C)O)NC(=O)[C@]3(C)CCCN3C(=O)[C@H](Cc3c[nH]c4ccc(F)cc34)NC(=O)[C@H](Cc3c[nH]c4ccc(F)cc34)NC(=O)[C@@H](C)NC(=O)[C@H](CCCCN)NC(=O)CCSCc3cccc(c3)CSCCNC(=O)[C@]3(C)CCCN3C2=O)cc1` [Compound 025] (cyclo(K[dA][Trp(5-F)][Trp(5-F)][αMeP]TY(Me)[αMeP][X4])) are 100 to 1000 nM and 100 to 1000 nM.
On to `COc1ccc(C[C@@H]2NC(=O)CCSCc3cccc(c3)CSC[C@@H](C(N)=O)NC(=O)[C@]3(C)CCCN3C(=O)[C@H](Cc3ccc(OC)cc3)NC(=O)[C@H]([C@@H](C)OC)NC(=O)[C@H](CC(C)C)N(C)C(=O)[C@H](Cc3ccc(OC)cc3)NC(=O)[C@H](Cc3ccc(OC)cc3)N(C)C(=O)[C@@H](CC(C)C)NC2=O)cc1` [Compound 036] ([Mpa]Y(Me)[dL][NMeY](Me)Y(Me)[NMeL]T(Me)Y(Me)[αMeP]C-NH2; linker 1-10 via mXylylene), for which the IC50 on PCSK9 was in the range of 0.11 to 100 nM; in test [1], 0.1 to 100 nM.
On the same counts, the results for `CCC[C@@H]1NC(=O)CCSCc2cccc(c2)CSC[C@@H](C(N)=O)NC(=O)[C@@H]2CCCN2C(=O)[C@H](Cc2ccc(OC)cc2)NC(=O)[C@H]([C@@H](C)OC)NC(=O)[C@@H]2CCCN2C(=O)[C@H](Cc2cn(C)c3ccccc23)N(C)C(=O)[C@H](Cc2ccc3ccccc3c2)NC(=O)[C@@H](CC(C)C)N(C)C1=O` [Compound 038] ([Mpa][Nva][dNMeL][2Nal][NMeTrp(1-Me)]PT(Me)Y(Me)PC-NH2; linker 1-10 via mXylylene) are 0.11 to 100 nM and 0.1 to 100 nM.
Regarding `C[C@H]1NC(=O)[C@H](CCCCN)NC(=O)CCSCc2cc(F)cc(c2)CSC[C@@H](C(N)=O)NC(=O)[C@]2(C)CCCN2C(=O)[C@H](Cc2ccc(O)cc2)NC(=O)[C@H]([C@@H](C)O)NC(=O)[C@@H]2CCCN2C(=O)[C@H](Cc2c[nH]c3ccc(F)cc23)NC(=O)[C@H](Cc2c[nH]c3ccc(F)cc23)NC1=O` [Compound 042] ([Mpa]K[dA][Trp(5-F)][Trp(5-F)]PTY[αMeP]C-NH2; linker 1-10 via mXylylene(5-F)), the IC50 is 1000 to 12100 nM on PCSK9 and 21000 to 50000 nM in test [1].
On the same counts, the results for `C[C@@H](O)[C@@H]1NC(=O)[C@@H]2CCCN2C(=O)[C@H](Cc2c[nH]c3ccc(F)cc23)NC(=O)[C@H](Cc2c[nH]c3ccc(F)cc23)NC(=O)CNC(=O)[C@H](CCCCN)NC(=O)CCSCc2cc(F)cc(c2)CSC[C@@H](C(N)=O)NC(=O)[C@]2(C)CCCN2C(=O)[C@H](Cc2ccc(O)cc2)NC1=O` [Compound 043] ([Mpa]KG[Trp(5-F)][Trp(5-F)]PTY[αMeP]C-NH2; linker 1-10 via mXylylene(5-F)) are 100 to 1000 nM and 100 to 1000 nM.
On the same counts, the results for `C[C@H]1NC(=O)[C@H](CCCCN)NC(=O)CCSCc2cccc(c2)CSC[C@@H](C(N)=O)NC(=O)[C@]2(C)CCCN2C(=O)[C@H](Cc2ccc(O)cc2)NC(=O)[C@H]([C@@H](C)O)NC(=O)[C@@H]2CCCN2C(=O)[C@H](Cc2c[nH]c3ccc(F)cc23)NC(=O)[C@H](Cc2c[nH]c3ccc(F)cc23)NC1=O` [Compound 044] ([Mpa]K[dA][Trp(5-F)][Trp(5-F)]PTY[αMeP]C-NH2; linker 1-10 via mXylylene) are 100 to 1000 nM and 100 to 1000 nM.
For the compound `CC[C@@]12CCCN1C(=O)[C@H](Cc1ccc(O)cc1)NC(=O)[C@H]([C@@H](C)O)NC(=O)[C@@H]1CCCN1C(=O)[C@H](Cc1c[nH]c3ccc(F)cc13)NC(=O)[C@H](Cc1c[nH]c3ccc(F)cc13)NC(=O)CNC(=O)[C@H](CCCCN)NC(=O)CCSCc1cccc(c1)CSC[C@@H](C(N)=O)NC2=O` [Compound 045] ([Mpa]KG[Trp(5-F)][Trp(5-F)]PTY[X23]C-NH2; linker 1-10 via mXylylene), the IC50 (at PCSK9; in test [1]) was 1000 to 12100 nM in each case.
In the case of `CCC[C@@H]1NC(=O)CCSCc2cccc(c2)CSC[C@@H](C(N)=O)NC(=O)[C@@H]2CCCN2C(=O)[C@H](Cc2ccc(OC)cc2)NC(=O)[C@H]([C@@H](C)OC)N(C)C(=O)[C@@H]2CCCN2C(=O)[C@H](Cc2cn(C)c3ccccc23)NC(=O)[C@H](Cc2ccc3ccccc3c2)NC(=O)[C@@H](CC(C)C)N(C)C1=O` [Compound 046] ([Mpa][Nva][dNMeL][2Nal][Trp(1-Me)]P[NMeT](Me)Y(Me)PC-NH2; linker 1-10 via mXylylene), the IC50 was in the range of 0.11 to 100 nM at PCSK9 and 0.1 to 100 nM in test [1].
On the same counts, the results for `COc1ccc(C[C@@H]2NC(=O)[C@H]([C@@H](C)O)NC(=O)[C@@H]3CCCN3C(=O)[C@H](Cc3c[nH]c4ccc(F)cc34)NC(=O)[C@H](Cc3c[nH]c4ccc(F)cc34)NC(=O)[C@@H](C)NC(=O)[C@H](C)NC(=O)CCCCc3cccc(c3)CCCCNC(=O)[C@@H]3CCCN3C2=O)cc1` [Compound 047] (cyclo(A[dA][Trp(5-F)][Trp(5-F)]PTY(Me)P[X13])) are 100 to 1000 nM and 100 to 1000 nM.
On the same counts, the results for `CC(C)(O)[C@@H]1NC(=O)[C@@H]2CCCN2C(=O)[C@H](Cc2c[nH]c3ccc(F)cc23)NC(=O)[C@H](Cc2c[nH]c3ccc(F)cc23)NC(=O)CNC(=O)[C@H](CCCCN)NC(=O)CCSCc2cccc(c2)CSC[C@@H](C(N)=O)NC(=O)[C@]2(C)CCCN2C(=O)[C@H](Cc2ccc(O)cc2)NC1=O` [Compound 048] ([Mpa]KG[Trp(5-F)][Trp(5-F)]P[Val(3-OH)]Y[αMeP]C-NH2; linker 1-10 via mXylylene) are 100 to 1000 nM and 100 to 1000 nM.
The matching figures for `CC(C)[C@@H](O)[C@@H]1NC(=O)[C@@H]2CCCN2C(=O)[C@H](Cc2c[nH]c3ccc(F)cc23)NC(=O)[C@H](Cc2c[nH]c3ccc(F)cc23)NC(=O)CNC(=O)[C@H](CCCCN)NC(=O)CCSCc2cccc(c2)CSC[C@@H](C(N)=O)NC(=O)[C@]2(C)CCCN2C(=O)[C@H](Cc2ccc(O)cc2)NC1=O` [Compound 049] ([Mpa]KG[Trp(5-F)][Trp(5-F)]P[Leu(3R-OH)]Y[αMeP]C-NH2; linker 1-10 via mXylylene): 100 to 1000 nM and 100 to 1000 nM.
As to `C[C@H](O)[C@@H]1NC(=O)[C@@H]2CCCN2C(=O)[C@H](Cc2c[nH]c3ccc(F)cc23)NC(=O)[C@H](Cc2c[nH]c3ccc(F)cc23)NC(=O)CNC(=O)[C@H](CCCCN)NC(=O)CCSCc2cccc(c2)CSC[C@@H](C(N)=O)NC(=O)[C@]2(C)CCCN2C(=O)[C@H](Cc2ccc(O)cc2)NC1=O` [Compound 050] ([Mpa]KG[Trp(5-F)][Trp(5-F)]P[aThr]Y[αMeP]C-NH2; linker 1-10 via mXylylene), the IC50 (at PCSK9; in test [1]) was 21000 to 50000 nM in each case.
With `C[C@@H](O)[C@H]1CC(=O)N[C@@H](Cc2ccc(O)cc2)C(=O)N2CCC[C@@]2(C)C(=O)N[C@H](C(N)=O)CSCc2cccc(c2)CSCCC(=O)N[C@@H](CCCCN)C(=O)NCC(=O)N[C@@H](Cc2c[nH]c3ccc(F)cc23)C(=O)N[C@@H](Cc2c[nH]c3ccc(F)cc23)C(=O)N2CCC[C@H]2C(=O)N1` [Compound 051] ([Mpa]KG[Trp(5-F)][Trp(5-F)]P[β3hT]Y[αMeP]C-NH2; linker 1-10 via mXylylene), the half-maximal inhibitory concentration (IC50) at PCSK9 lay in the range of 0.11 to 100 nM; in test [1], 0.1 to 100 nM.
On to `CC(C)[C@H]1NC(=O)[C@H](CCCCN)NC(=O)CCSCc2cccc(c2)CSC[C@@H](C(N)=O)NC(=O)[C@]2(C)CCCN2C(=O)[C@H](Cc2ccc(O)cc2)NC(=O)[C@H]([C@@H](C)O)NC(=O)[C@@H]2CCCN2C(=O)[C@H](Cc2c[nH]c3ccc(F)cc23)NC(=O)[C@H](Cc2c[nH]c3ccc(F)cc23)NC1=O` [Compound 052] ([Mpa]K[dV][Trp(5-F)][Trp(5-F)]PTY[αMeP]C-NH2; linker 1-10 via mXylylene), for which the IC50 (on PCSK9; in test [1]) was 1000 to 12100 nM throughout.
Consider `CO[C@@H](C)[C@@H]1NC(=O)[C@@H]2CCCN2C(=O)[C@H](Cc2c[nH]c3ccc(F)cc23)NC(=O)[C@H](Cc2c[nH]c3ccc(F)cc23)NC(=O)[C@@H](C)NC(=O)[C@H](CCCCN)NC(=O)CCSCc2cccc(c2)CSC[C@@H](C(N)=O)NC(=O)[C@]2(C)CCCN2C(=O)[C@H](Cc2ccc(O)cc2)NC1=O` [Compound 053] ([Mpa]K[dA][Trp(5-F)][Trp(5-F)]P[aThr](Me)Y[αMeP]C-NH2; linker 1-10 via mXylylene), for which the 50% inhibitory concentration (IC50) (on PCSK9; in test [1]) was 1000 to 12100 nM each time.
Turning to `COc1ccc(C[C@@H]2NC(=O)[C@H]([C@@H](C)O)NC(=O)[C@@H]3CCCN3C(=O)[C@H](Cc3c[nH]c4ccc(F)cc34)NC(=O)[C@H](Cc3c[nH]c4ccc(F)cc34)NC(=O)[C@@H](C)NC(=O)[C@H](CCCCN)NC(=O)CCSCc3cccc(c3)CSC[C@@H](C(N)=O)NC(=O)[C@]3(C)CCCN3C2=O)cc1` [Compound 054] ([Mpa]K[dA][Trp(5-F)][Trp(5-F)]PTY(Me)[αMeP]C-NH2; linker 1-10 via mXylylene), the IC50 on PCSK9 was 100 to 1000 nM; in test [1] it was 0.1 to 100 nM.
